This note sets out measurements from patent publication US10166216B2 (Rigel Pharmaceuticals, Inc., priority 2006, dated 2019).

One may read the IC50 as the point on the concentration scale where inhibition reaches its midpoint. Low readings indicate inhibition by little substance, high ones a need for much substance.

The target in one assay is Axl (Homo sapiens (Human), UniProt P30530). Nature of the assay: Phospho-Akt in-cell Western assay (Axl-antibody cross-linking stimulation). The class given is cell-based. The note with it: inhibition of Axl activity, Hela cells, phospho-Akt readout; Table 1, formula (Ia1). Summed up: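 HeLa cells on poly-L-lysine, starved 24 hrs with Axl/Fc, pre-treated with compound 1 hr at 37° C., then stimulated 5 min with Axl primary/secondary antibody cluster. Fixed cells probed for phospho-Akt by chemiluminescent in-cell Western; signal normalized to crystal violet cell number.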
Sequence of Axl (P30530 26-894): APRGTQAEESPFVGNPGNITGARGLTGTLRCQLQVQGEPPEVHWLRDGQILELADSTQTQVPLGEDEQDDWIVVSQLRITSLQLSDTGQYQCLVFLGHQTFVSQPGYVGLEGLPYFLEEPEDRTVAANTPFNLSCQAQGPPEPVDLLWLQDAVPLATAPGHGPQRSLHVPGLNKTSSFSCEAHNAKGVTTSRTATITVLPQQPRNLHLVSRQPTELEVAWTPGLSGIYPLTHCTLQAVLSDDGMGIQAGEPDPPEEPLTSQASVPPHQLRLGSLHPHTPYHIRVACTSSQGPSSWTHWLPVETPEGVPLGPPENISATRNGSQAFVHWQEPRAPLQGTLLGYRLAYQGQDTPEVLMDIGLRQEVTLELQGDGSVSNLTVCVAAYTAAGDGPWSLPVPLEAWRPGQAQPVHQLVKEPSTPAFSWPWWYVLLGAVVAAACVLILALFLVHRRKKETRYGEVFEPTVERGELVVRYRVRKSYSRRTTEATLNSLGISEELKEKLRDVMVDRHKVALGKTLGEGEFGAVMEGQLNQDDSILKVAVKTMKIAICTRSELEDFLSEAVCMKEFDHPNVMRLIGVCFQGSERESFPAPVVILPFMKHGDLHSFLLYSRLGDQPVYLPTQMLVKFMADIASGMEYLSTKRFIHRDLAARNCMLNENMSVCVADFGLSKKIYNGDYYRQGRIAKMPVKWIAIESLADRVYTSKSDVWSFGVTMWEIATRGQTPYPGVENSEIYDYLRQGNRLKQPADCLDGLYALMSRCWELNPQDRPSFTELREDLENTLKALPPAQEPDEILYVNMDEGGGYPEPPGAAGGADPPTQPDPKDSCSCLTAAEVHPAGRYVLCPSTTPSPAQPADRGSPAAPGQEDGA
As for `COc1cc2c(-n3nc(Nc4ccc(OCCN5CCCC5)cc4)nc3N)ncnc2cc1OCc1ccccc1` [Compound 104, 1-(7-(benzyloxy)-6-methoxyquinazolin-4-yl)-N^3-(4-(2-(pyrrolidin-1-yl)ethoxy)phenyl)-1H-1,2,4-triazole-3,5-diamine], the IC50 is more than 20 µM.

Staying with this assay, now noted: inhibition of Axl activity, Hela cells, phospho-Akt readout; Table 4, formula (Ib2).
The compound `Nc1nc(Nc2ccc(N3CCN(C4CC5CCC4C5)CC3)cc2)n(-c2nc3ccccc3s2)n1` (stereo not shown) [Compound 95, 1-(benzo[d]thiazol-2-yl)-N^5-(4-(4-(bicyclo[2.2.1]heptan-2-yl)piperazin-1-yl)phenyl)-1H-1,2,4-triazole-3,5-diamine] returned an IC50 of more than 20 µM.
Still for that read-out and setting: next, `COc1cc2ncnc(-n3nc(N)nc3Nc3ccc(N4CCN(C5CC6CCC5C6)CC4)cc3)c2cc1OC` (stereo not shown) [Compound 100, N^5-(4-(4-(bicyclo[2.2.1]heptan-2-yl)piperazin-1-yl)phenyl)-1-(6,7-dimethoxyquinazolin-4-yl)-1H-1,2,4-triazole-3,5-diamine]: less than 1 µM.

The same assay, now with this note: inhibition of Axl activity, phospho-Akt in-cell Western assay.
With `CC(=O)N1CCN(c2ccc(Nc3nc(N)n(-c4nccc5ccccc45)n3)cc2)CC1` [Compound 88, 1-(4-(4-(5-amino-1-(isoquinolin-1-yl)-1H-1,2,4-triazol-3-ylamino)phenyl)piperazin-1-yl)ethanone], the IC50 was in the range of 1 to 10 µM.
The same measure, in the same setting: next, `CN1CCN(c2ccc(Nc3nc(N)n(-c4nccc5ccccc45)n3)cc2F)CC1` [Compound 90, N^3-(3-fluoro-4-(4-methylpiperazin-1-yl)phenyl)-1-(isoquinolin-1-yl)-1H-1,2,4-triazole-3,5-diamine]: less than 1 µM.
The same measure, in the same setting: for `Nc1nc(Nc2ccc(N3CCN(C4CCCCC4)CC3)c(Cl)c2)nn1-c1nccc2ccccc12` [Compound 91, N^3-(3-chloro-4-(4-cyclohexylpiperazin-1-yl)phenyl)-1-(isoquinolin-1-yl)-1H-1,2,4-triazole-3,5-diamine] the value was less than 1 µM.
Same read-out and setting: for `CN1CCN(c2ccc(Nc3nc(N)n(-c4ncc5c(n4)-c4ccccc4CC5)n3)cc2)CC1` [Compound 92, 1-(5,6-dihydrobenzo[h]quinazolin-2-yl)-N^3-(4-(4-methylpiperazin-1-yl)phenyl)-1H-1,2,4-triazole-3,5-diamine] the value was less than 1 µM; for `Nc1nc(Nc2ccc(N3CCN(C4CCCCC4)CC3)cc2)nn1-c1ncc2c(n1)-c1ccccc1CC2` [Compound 93, N^3-(4-(4-cyclohexylpiperazin-1-yl)phenyl)-1-(5,6-dihydrobenzo[h]quinazolin-2-yl)-1H-1,2,4-triazole-3,5-diamine], less than 1 µM; for `Nc1nc(Nc2ccc(N3CCN(C4CC5CCC4C5)CC3)cc2)nn1-c1ccccn1` (stereo not shown) [Compound 94, N^3-(4-(4-(bicyclo[2.2.1]heptan-2-yl)piperazin-1-yl)phenyl)-1-(pyridin-2-yl)-1H-1,2,4-triazole-3,5-diamine], 1 to 10 µM.
In turn, `Nc1nc(Nc2ccc(N3CCN(C4CC5CCC4C5)CC3)cc2)nn1-c1nc2ccccc2s1` (stereo not shown) [Compound 96, 1-(benzo[d]thiazol-2-yl)-N^3-(4-(4-(bicyclo[2.2.1]heptan-2-yl)piperazin-1-yl)phenyl)-1H-1,2,4-triazole-3,5-diamine] came in with an IC50 of 1 to 10 µM.
On the same count and under the same terms, for `Nc1nc(Nc2ccc(N3CCN(C4CC5CCC4C5)CC3)cc2)nn1-c1cnc2ccccc2n1` (stereo not shown) [Compound 97, N^3-(4-(4-(bicyclo[2.2.1]heptan-2-yl)piperazin-1-yl)phenyl)-1-(quinoxalin-2-yl)-1H-1,2,4-triazole-3,5-diamine] the value was 1 to 10 µM; for `COc1cc2ncnc(-n3nc(Nc4ccc(N5CCN(C6CC7CCC6C7)CC5)cc4)nc3N)c2cc1OC` (stereo not shown) [Compound 98, N^3-(4-(4-(bicyclo[2.2.1]heptan-2-yl)piperazin-1-yl)phenyl)-1-(6,7-dimethoxyquinazolin-4-yl)-1H-1,2,4-triazole-3,5-diamine], less than 1 µM; for `COc1cc2nc(Cl)nc(-n3nc(Nc4ccc(N5CCN(C6CC7CCC6C7)CC5)cc4)nc3N)c2cc1OC` (stereo not shown) [Compound 101, N^3-(4-(4-(bicyclo[2.2.1]heptan-2-yl)piperazin-1-yl)phenyl)-1-(2-chloro-6,7-dimethoxyquinazolin-4-yl)-1H-1,2,4-triazole-3,5-diamine], 1 to 10 µM.
Same read-out and setting: next, `COc1cc2c(-n3nc(Nc4ccc(N5CCN(C6CC7CCC6C7)CC5)cc4)nc3N)nc(Cl)nc2cc1O` (stereo not shown) [Compound 102, 4-(5-amino-3-(4-(4-(bicyclo[2.2.1]heptan-2-yl)piperazin-1-yl)phenylamino)-1H-1,2,4-triazol-1-yl)-2-chloro-6-methoxyquinazolin-7-ol]: less than 1 µM; `COc1cc2ncnc(-n3nc(Nc4ccc(N5CCN(C)CC5)c(F)c4)nc3N)c2cc1OC` [Compound 105, 1-(6,7-dimethoxyquinazolin-4-yl)-N^3-(3-fluoro-4-(4-methylpiperazin-1-yl)phenyl)-1H-1,2,4-triazole-3,5-diamine]: less than 1 µM.
Still for that read-out and setting: for `COc1cc2c(-n3nc(Nc4ccc(N5CCN(C6CC7CCC6C7)CC5)c(F)c4)nc3N)ncnc2cc1O` (stereo not shown) [Compound 106, 4-(5-amino-3-(4-(4-(bicyclo[2.2.1]heptan-2-yl)piperazin-1-yl)-3-fluorophenylamino)-1H-1,2,4-triazol-1-yl)-6-methoxyquinazolin-7-ol] the value was less than 1 µM; for `COc1cc2ncnc(-n3nc(Nc4ccc(N5CCN(C(C)=O)CC5)cc4)nc3N)c2cc1OC` [Compound 107, 1-(4-(4-(5-amino-1-(6,7-dimethoxyquinazolin-4-yl)-1H-1,2,4-triazol-3-ylamino)phenyl)piperazin-1-yl)ethanone], less than 1 µM.
Consider `CN1CCN(c2ccc(Nc3nc(N)n(-c4cc5c(nn4)-c4ccccc4CC5)n3)cc2)CC1` [Compound 108, 1-(5,6-dihydrobenzo[h]cinnolin-3-yl)-N^3-(4-(4-methylpiperazin-1-yl)phenyl)-1H-1,2,4-triazole-3,5-diamine], for which the IC50 was less than 1 µM.
Still for that read-out and setting: next, `COc1cc2c(-n3nc(Nc4ccc(N5CCN(C6CCCCCC6)CC5)cc4)nc3N)ncnc2cc1O` [Compound 109, 4-(5-amino-3-(4-(4-cycloheptylpiperazin-1-yl)phenylamino)-1H-1,2,4-triazol-1-yl)-6-methoxyquinazolin-7-ol]: less than 1 µM.
The same measure, in the same setting: next, `COc1cc2ncnc(-n3nc(Nc4ccc(N5CCN(C6CCCCCC6)CC5)cc4)nc3N)c2cc1OC` [Compound 110, N^3-(4-(4-cycloheptylpiperazin-1-yl)phenyl)-1-(6,7-dimethoxyquinazolin-4-yl)-1H-1,2,4-triazole-3,5-diamine]: less than 1 µM; `COc1cc2ncnc(-n3nc(Nc4ccc(N5CCN(C6C7CC8CC(C7)CC6C8)CC5)cc4)nc3N)c2cc1OC` (stereo not shown) [Compound 111]: more than 20 µM.
In turn, `COc1cc2ncnc(-n3nc(Nc4ccc(N5CCN(C6CCCCCCC6)CC5)cc4)nc3N)c2cc1OC` [Compound 112, N^3-(4-(4-cyclooctylpiperazin-1-yl)phenyl)-1-(6,7-dimethoxyquinazolin-4-yl)-1H-1,2,4-triazole-3,5-diamine] gave an IC50 of more than 20 µM.
Same read-out and setting: for `CN1CCN(c2ccc(Nc3nc(N)n(-c4nccc5[nH]c(=O)ccc45)n3)cc2F)CC1` [Compound 113, 5-(5-amino-3-(3-fluoro-4-(4-methylpiperazin-1-yl)phenylamino)-1H-1,2,4-triazol-1-yl)-1,6-naphthyridin-2(1H)-one] the value was less than 1 µM; for `COc1cc2ncnc(-n3nc(Nc4ccc(N5CCN(C6CCCCC6)CC5)c(Cl)c4)nc3N)c2cc1OC` [Compound 114, N^3-(3-chloro-4-(4-cyclohexylpiperazin-1-yl)phenyl)-1-(6,7-dimethoxyquinazolin-4-yl)-1H-1,2,4-triazole-3,5-diamine], less than 1 µM.
`Nc1nc(Nc2ccc(N3CCN(C4CCCCC4)CC3)cc2)nn1-c1cc2c(nn1)-c1ccccc1CC2` [Compound 115, N^3-(4-(4-cyclohexylpiperazin-1-yl)phenyl)-1-(5,6-dihydrobenzo[h]cinnolin-3-yl)-1H-1,2,4-triazole-3,5-diamine] registered a half-maximal inhibitory concentration (IC50) of 1 to 10 µM.
On the same count and under the same terms, next, `CN1CCN(c2ccc(Nc3nc(N)n(-c4ncnc5cc(O)c(O)cc45)n3)cc2F)CC1` [Compound 116, 4-(5-amino-3-(3-fluoro-4-(4-methylpiperazin-1-yl)phenylamino)-1H-1,2,4-triazol-1-yl)quinaoline-6,7-diol]: 1 to 10 µM; `COc1cc2c(-n3nc(Nc4ccc(N5CCN(C)CC5)c(F)c4)nc3N)ncnc2cc1O` [Compound 117, 4-(5-amino-3-(3-fluoro-4-(4-methylpiperazin-1-yl)phenylamino)-1H-1,2,4-triazol-1-yl)-6-methoxyquinazolin-7-ol]: less than 1 µM; `COc1cc2ncnc(-n3nc(Nc4ccc(N5CCN(C6C7CCCC6CCC7)CC5)cc4)nc3N)c2cc1OC` (stereo not shown) [Compound 118, N^3-(4-(4-(bicyclo[3.3.1]nonan-9-yl)piperazin-1-yl)phenyl)-1-(6,7-dimethoxyquinazolin-4-yl)-1H-1,2,4-triazole-3,5-diamine]: 1 to 10 µM.
Same read-out and setting: for `CCN1CCN(c2cc(Nc3nc(N)n(-c4ncnc5cc(OC)c(OC)cc45)n3)ccc2Cl)CC1` [Compound 119, N-(4-chloro-3-(4-ethylpiperazin-1-yl)phenyl)-1-(6,7-dimethoxyquinazolin-4-yl)-1H-1,2,4-triazole-3,5-diamine] the value was 1 to 10 µM; for `COc1cc2ncnc(-n3nc(Nc4ccc(Cl)c(N5CCN(C(C)=O)CC5)c4)nc3N)c2cc1OC` [Compound 120, 1-(4-(5-(5-amino-1-(6,7-dimethoxyquinazolin-4-yl)-1H-1,2,4-triazol-3-ylamino)-2-chlorophenyl)piperazin-1-yl)ethanone], more than 20 µM; for `COc1cc2ncnc(-n3nc(Nc4ccc(N5CCN(C)CC5)c(C(N)=O)c4)nc3N)c2cc1OC` [Compound 121, 5-(5-amino-1-(6,7-dimethoxyquinazolin-4-yl)-1H-1,2,4-triazol-3-ylamino)-2-(4-methylpiperazin-1-yl)benzamide], 1 to 10 µM.
